Experimental data as given in PMC7231190, “The Medium-Chain Fatty Acid Receptor GPR84 Mediates Myeloid Cell Infiltration Promoting Steatohepatitis and Fibrosis” (Journal of Clinical Medicine, 2020).
Where a name gives a salt, the structure may show the parent alone.

How the values were obtained:
mGPR84 = target: T1, mGPR84 (Mus musculus, UniProt Q8CIM5); assay: cAMP HTRF assay, CHO-K1-mGPR84 cell membrane; format: biochemical
T1 construct: expressed in transfected cells; host or cells: CHO-K1

[1] = tested on: lung fibrosis mouse models; set-up: method as in earlier work; conditions: two mouse models, therapeutic setting; cited from earlier work
[2] = tested on: experimental kidney as well as liver fibrosis; set-up: method as in PMID 29454750, PMID 30093459; conditions: cited from earlier work
patients with NASH = tested on: patients with NASH; set-up: method as in PMID 28833331, PMID 31943293; conditions: early data from a clinical trial in patients with NASH; cited from earlier work
human neutrophils = assay: Human neutrophil chemotaxis towards GPR84 agonists; format: cell-based; conditions: embelin 5 µM
[3] = tested on: CD115+ monocytes from mouse bone marrow; assay: Transwell chemotaxis of murine bone-marrow monocytes; format: cell-based; conditions: 3-µM embelin, 2 h
Description: (§1) Bone marrow of the untreated WT mice at 8 weeks of age was used to isolate the immune cells for transwell migration assays. A single cell suspension was achieved by flushing cold RPMI-1640 through the bones, and grinding the received bone marrow through a 70-µm cell strainer. After lysis of red blood cells by Pharmlyse (BD Biosciences, San Jose, CA, USA), 1 × 10^6 cells in RPMI-1640 were placed in the upper compartment of the 5-µm transwell migration chamber. Migration was analyzed towards stimulation with a 3-µM embelin, a surrogate GPR84 agonist, or a 100-µM myristic acid (an MCFA) dissolved in combination with bovine serum albumin (BSA) in the lower compartment. The chemotactic cytokines, 5 nM CCL2 or 1 nM CXCL1, were used as positive controls for monocyte or neutrophil migration, respectively. After 2 h of incubation at 37 °C, the cells in the lower compartment were analyzed by flow cytometry.

[4] = tested on: neutrophils from mouse bone marrow; assay: Transwell chemotaxis of murine bone-marrow neutrophils; format: cell-based; conditions: 3-µM embelin, 2 h
Description: as §1

[5] = tested on: C57BL6/J wildtype mice, acute CCl4 liver injury; assay: CCl4-induced acute liver injury in mice; format: in vivo, mouse; conditions: 36 h after single IP CCl4
[6] = tested on: C57BL6/J wildtype mice, MCD diet; assay: MCD diet-induced steatohepatitis and fibrosis in mice; format: in vivo, mouse; conditions: MCD diet 8 weeks, treatment last 4 weeks; GPR84 antagonists 30 mg/kg PO q.d., selonsertib 15 mg/kg PO b.i.d.
[7] = tested on: C57BL6/J wildtype mice, chronic CCl4; assay: CCl4-induced chronic liver injury / fibrosis in mice; format: in vivo, mouse; conditions: CCl4 IP twice per week 8 weeks, treatment last 4 weeks; CpdA 30 mg/kg q.d., selonsertib 15 mg/kg b.i.d.
[8] = GPR84 antagonists 30 mg/kg PO, selonsertib 15 mg/kg PO

T1 sequence (Q8CIM5 whole entry): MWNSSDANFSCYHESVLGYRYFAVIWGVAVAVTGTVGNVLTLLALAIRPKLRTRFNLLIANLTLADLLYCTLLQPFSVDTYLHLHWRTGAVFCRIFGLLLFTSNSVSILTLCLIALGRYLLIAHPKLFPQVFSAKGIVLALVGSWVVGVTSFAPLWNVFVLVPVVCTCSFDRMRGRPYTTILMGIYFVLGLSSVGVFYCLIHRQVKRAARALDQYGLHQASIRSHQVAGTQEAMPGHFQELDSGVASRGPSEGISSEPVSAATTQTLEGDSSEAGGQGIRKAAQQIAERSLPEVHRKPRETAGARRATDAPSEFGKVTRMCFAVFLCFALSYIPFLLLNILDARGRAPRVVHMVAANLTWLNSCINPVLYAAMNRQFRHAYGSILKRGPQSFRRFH

CCCCCCCCCC(=O)O [Capric acid]
EC80 of agonist in cAMP HTRF assay (mGPR84): cAMP HTRF assay (IC50 nM) CHO-K1-mGPR84 cell membrane, Capric acid (EC80 = 61.7 µM)

O=c1nc(OC[C@@H]2COCCO2)cc2n1CCc1cc(C#CC3CC3)ccc1-2 [GLPG1205]
lung fibrosis [1]: reduced lung fibrosis

CCCCCc1cccc(CC(=O)O)c1 [PBI-4050, 3-pentylbenzeneacetic acid sodium salt]
experimental kidney and liver fibrosis [2]: reduced experimental kidney as well as liver fibrosis

CCCCOCCOc1ccc(-c2ccc3c(c2)/C=C(/C(=O)Nc2ccc([S@@+]([O-])Cc4cncn4CCC)cc2)CCCN3CC(C)C)cc1 [cenicriviroc]
antifibrotic activity (patients with NASH): effective antifibrotic activity

CCCCCCCCCCCC1=C(O)C(=O)C=C(O)C1=O [embelin]
induction of human neutrophil migration by agonist (human neutrophils): strongly induced
stimulation of mouse monocyte migration by agonist [3]: stimulated
attraction of mouse neutrophils by agonist [4]: attracted

Cc1cc(F)c(C(=O)Nc2cccc(-c3nncn3C(C)C)n2)cc1-n1cnc(C2CC2)c1 [selonsertib]
extent of acute liver injury (necrotic areas on histology, serum ALT) ([5]; GPR84 antagonists 30 mg/kg PO at 0 h, 24 h, selonsertib 15 mg/kg PO at 0, 12, 24 h): neither significantly modified
MoMF infiltration (flow cytometry) [5, 8]: but not selonsertib, significantly reduced
hepatic macrophage accumulation (F4/80 immunohistochemistry) [5, 8]: neither significantly modified
hepatic neutrophil infiltration (flow cytometry) [5, 8]: but not selonsertib, significantly reduced
liver fibrosis (Sirius-Red-stained liver sections and hepatic hydroxyproline content) [6]: reduced
liver fibrosis (Sirius-Red-staining and hepatic hydroxyproline content) [7]: markedly reduced
neutrophils and liver lymphocytes [7]: largely unaltered
numbers of hepatic macrophages, particularly MoMF [7]: lower numbers
toxic injury according to histology or ALT levels [7]: unaffected
